Experimental data from patent US20240262845A1, “PYRIDINIUM SALTS, METHODS OF MAKING, AND METHODS OF USE” (UNIVERSITY OF WYOMING, priority 2023, published 2024).
Entries after “also recorded” stand apart in the source; their conditions may differ. Where a name gives a salt, the structure may show the parent alone.

What was measured:
HEK293T lysates = test: Chemoproteomic profiling of HEK293T lysates (protein-level enrichment); type: biochemical, human; conditions: for Western blot (streptavidin-HRP) proteome labeling profile of elutions: 0-100 μM probe, with/without light, before digestion; for number of proteins identified (from ≥2 unique peptides) showing ≥2-fold enrichment versus DMSO: about 100 μM probe, 5 mg/mL lysate, 60 min incubation, 20 min irradiation: 302 nm (1a), 320 nm (1b), 440 nm (2b)
Protocol: In lysate tryptophan probe treatment for protein-level characterization: HEK293T cell pellets were suspended in native lysis buffer (50 mM HEPES pH 7.5, 150 mM sodium chloride (NaCl), 1.5 mM MgCl2, 1 mM DTT, 0.8% NP-40, 5% glycerol, and 1× protease inhibitors (Thermo)) at 2× the pellet volume. The samples were sonicated on ice for 30 seconds at 20% amplitude with a 2 second pulse ON and 3 second pulse OFF. Cell debris was removed by centrifugation at 20,000×g for 20 minutes at 4° C. Protein concentration was determined by bicinchoninic acid (BCA) (Pierce) and diluted down to 5 mg/mL with ChemProt buffer (50 mM HEPES pH 7.5, 150 mM NaCl, 1.5 mM MgCl2, 1 mM DTT, 0.4% NP-40, and 1x protease inhibitors (Thermo). 5 mg cell lysates were treated with 100× stocks of the tryptophan probes (pyridinium salts 1a, 1b, and 2b) to generate final concentrations (0, 1, 10, and 100 μM) in 1% DMSO. Lysates were incubated for 1 hour at 4° C. followed by photo-activation at respective wavelengths for 20 minutes at 4° C. Excess probe was removed using Sephadex G-25 PD-10 desalting columns (GE Healthcare) pre-equilibrated with 50 mM HEPES pH 7.5, 150 mM NaCl, 1.5 mM MgCl2, and 0.4% NP-40. The samples were then treated with 100 μL Neutravidin resin as a 50% slurry (Peirce). The samples were incubated overnight on a rotating apparatus at R.T. The following day, the beads were transferred to a MobiCol column (Boca Scientific), washed 3× with phosphate buffered saline (PBS) containing 0.2% SDS, washed 3× with PBS, and the enriched proteins were eluted with 2× NuPAGE lithium dodecyl sulfate (LDS) containing 10 mM DTT (Pierce) and heated for 30 minutes at 55° C. The eluent was collected and subsequently treated with 20 mM iodoacetamide (Pierce) for 30 minutes at R.T. protected from light. Samples were passed through detergent removal columns (Pierce) that were pre-equilibrated with 50 mM HEPES pH 8.0. The samples were treated with 2.5 μg Trypsin/LysC (Promega) at 37° C. for 16 hours. The following day, the sample was collected and prepped for isobaric labeling with TMT reagents (Thermo) as specified by the manufacturer.
Quantitative proteomics by two-dimensional nano liquid chromatography-tandem mass spectrometry (nLC-MS/MS): For protein-level characterization, the TMT-labeled sample were reconstituted in 0.1% formic acid (FA)/2% acetonitrile for offline high-pH reversed phase separation (RP10) using a Dionex UltiMate 3000 high-performance liquid chromatography (HPLC) system with fraction collection using Chromeleon v.6.8 (Thermo) software. Separation was achieved on a Waters Xbridge C18 3.5 μm 2.1×150 mm HPLC column (Waters) using a flow rate of 250 μL min-1 and the following ternary gradient and conditions: mobile phase A=water (HPLC grade), mobile phase B=acetonitrile (HPLC grade), and mobile phase C=200 mM ammonium acetate, pH 10. Mobile phase C is held at 10% throughout gradient. Starting conditions are 89% mobile phase A and 1% mobile phase B, ramping mobile phase B to 80% over 65 min. Fractions were collected in 96-well plates at 100 sec per well. Fractions were reduced down to 12 fractions, dried, and reconstituted in 0.1% FA/2% acetonitrile for nLC-MS/MS. All data were acquired using a Orbitrap Fusion Lumos coupled to an Easy-nLC 1200 nanoflow liquid chromatograph operating at 300 nL min-1. Peptides were cleaned up using a 1 cm online custom trap then eluted on a custom 20 cm laser pulled 75 μm column with C18 resin. Peptides were quantified using the synchronous precursor selection (SPS-MS3) or HCD method for TMT quantitation with 120k MS1 resolving power, 50 ms max injection time and 100% AGC. MS2 spectra were selected using the top ten most abundant features with a charge state between 2-6 using CID (collision induced dissociation) in the ion trap. The AGC was set to 100% with an isolation width of 0.7. MS3 was performed on the top 10 most abundant MS2 features between 400-1600 amu with a collision energy of 55%, AGC of 250%, and 50k resolution. […]

lysozyme = biological target: T1, lysozyme (Gallus gallus, UniProt P00698); test: Photochemical labeling of lysozyme with pyridinium salts (General Procedure B, LC/MS); type: biochemical, chicken; conditions: lysozyme labeling
T1 construct: Lysozyme (from chicken egg white, >40,000 units/mg of protein); purchased Sigma Aldrich; host or cells: chicken egg white
T1 sequence (P00698 19-147): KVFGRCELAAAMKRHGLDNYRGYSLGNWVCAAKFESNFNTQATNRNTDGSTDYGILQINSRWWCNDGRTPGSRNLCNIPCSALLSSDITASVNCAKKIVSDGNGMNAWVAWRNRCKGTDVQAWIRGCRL
Protocol: General Procedure B: Photochemical Irradiation of Peptides and Proteins: To a 2 mL Pyrex LC/MS vial (Thermo model #03-391-39) were sequentially added solutions containing the desired biomolecule, glutathione (GSH), pyridinium salt, and ammonium acetate (NH4OAc). The resulting solution was diluted to a final volume of 500 μL and then sparged using nitrogen for a minimum of 30 minutes prior to irradiation. The actively sparging solution was then placed in an EvoluChem™ PhotoRedOx Box photoreactor that was equipped with a Kessil, PR160 427 nm LED Lamp and was then irradiated (100% lamp intensity) for the designated time at room temperature while maintaining active sparging. The resultant reaction mixture was then analyzed directly by LC/MS. Analysis of labeling outcomes using LC/MS was performed either by extracted ion chromatogram intensities (method A) or by integrating the area under the peaks associated with peptide content (method B). These values were totaled, and estimated percentages were assigned according to relative intensities of peaks or ion counts.
Labeling of Lysozyme with Pyridinium Salt 2a (Lysozyme-2a Conjugate). Labeling of lysozyme (14.3 kDa) with the pyridinium salt 2a was performed by following general procedure B using the following solutions: lysozyme (27 μL, 182 μM, 10 μM final concentration), pyridinium salt 2a (200 μL, 500 μM, 200 μM final concentration), NH4OAc (100 μL, 100 mM, pH=6.9, 20 mM final concentration), glutathione (15 μL, 10 mM, 300 μM final concentration), and water (158 μL) with a 100% intensity irradiation time of 60 minutes. The reaction mixture was analyzed directly by LC/MS using method A and was estimated to have proceeded in >95% conversion and a 10.9:1 mono:di labeled ratio and 10% glutathionylation of all unlabeled and labeled protein content was observed.
Labeling of Lysozyme with Pyridinium Salt 2b (Lysozyme-2b Conjugate). Labeling of lysozyme (14.3 kDa) with the pyridinium salt 2b was performed by following general procedure Busing the following solutions: lysozyme (19 μL, 262 μM, […]), 2b (181 μL, 554 μM, 200 μM final concentration), NH4OAc (50 μL, 200 mM, pH=6.9, 20 mM final concentration), glutathione (50 μL, 3 mM, 300 μM final concentration), and water (200 μL) with a 100% intensity irradiation time of 10 minutes. The reaction mixture was analyzed directly by LC/MS using method A and was estimated to have proceeded with 83% conversion. […]
Labeling of Lysozyme with Pyridinium Salt 2c (Lysozyme-2c Conjugate). […] The reaction mixture was analyzed directly by LC/MS using method A and was estimated to have proceeded with 85% conversion and a 3.7:1 mono:di labeled ratio and 10% glutathionylation of all protein content was observed. […]

Row | Compound | Western blot (streptavidin-HRP) proteome labeling profile of elutions (HEK293T lysates) | number of proteins identified (from ≥2 unique peptides) showing ≥2-fold enrichment versus DMSO (HEK293T lysates) | labeling rate compared to pyridinium salt 2a (lysozyme)
1 | Cc1cc(C)[n+](N(C)C(=O)OCCCCC[C@@H]2SC[C@@H]3NC(=O)N[C@@H]32)c(C)c1 [pyridinium salt 1a, 2,4,6-trimethyl-1-(methyl(((5-((3aS,4S,6aR)-2-oxohexahydro-1H-thieno[3,4-d]imidazol-4-yl)pentyl)oxy)carbonyl)amino)pyridin-1-ium tetrafluoroborate] | concentration and optically dependent proteome labeling profiles; also recorded: loss of signal | 185 | –
2 | Cc1cc(-c2ccccc2)cc(C)[n+]1N(C)C(=O)OCCCCC[C@@H]1SC[C@@H]2NC(=O)N[C@@H]21 [pyridinium salt 1b, 2,6-dimethyl-1-(methyl(((5-((3aS,4S,6aR)-2-oxohexahydro-1H-thieno[3,4-d]imidazole-4-yl)pentyl)oxy)carbonyl)amino)-4-phenylpyridin-1-ium tetrafluoroborate] | concentration and optically dependent proteome labeling profiles; also recorded: dose-response profiles | 365 | –
3 | COc1ccc2cc(-c3cc(C)[n+](N(C)C(=O)OCCCCCC[C@H]4NC(=O)N[C@H]4C)c(C)c3)ccc2c1 [pyridinium salt 2c, 4-(6-methoxynaphthalen-2-yl)-2,6-dimethyl-1-(methyl(((6-((4R,5S)-5-methyl-2-oxoimidazolidin-4-yl)hexyl)oxy)carbonyl)amino)pyridin-1-ium trifluoroacetate] | – | – | enhanced rate
